pEC50: −log10 of the molar value.
How the values were obtained:
ubiquilin 4 = molecular target: T1, ubiquilin 4 (Homo sapiens, UniProt Q9NRR5); experiment: Cellular thermal shift assay (CETSA) in HEK-293T lysate; type: binding; conditions: 100 μM Cbz-B3A, lysate incubated 30 min
T1 construct: endogenous in cells; host or cells: HEK-293T lysate
Procedure: CETSA was performed as previously described. Briefly, HEK-293T cells were lysed in DPBS with Roche complete protease inhibitor by 3 quick freeze thaws, centrifuged at 20,000 g for 20 min at 4° C., and the supernatant was adjusted to 4 mg/mL. Lysate was incubated with compound for 30 min and heated to different temperatures in a thermal cycler for 3 min, then cooled to room temperature for 3 min. All samples were then centrifuged at 20,000 g for 20 min at 4° C. and a western blot was run on the supernatant.

TSC2 = TSC2 level immunoblot in HEK-293T cells; type: cell-based; conditions: 10 μM, 4 h; p=0.19 vs DMSO
Procedure: Quantification of western blots was performed with ImageJ. Cells were lysed in RIPA buffer (1% NP-40, 1% NaDeoxycholate, 0.1% SDS, 10 mM TrisCl, 10 mM β-glycerophosphate, 10 mM Na pyrophosphate, 50 mM NaF, 200 μM Na vanadate, 1 mM EDTA, 500 μM EGTA, 1% benzonase, and supplemented with complete (Roche Diagnostics) protease inhibitors).

NCI-60 cell lines = experiment: NCI-60 DTP Human Tumor Cell Line Screen, all cell lines; type: cell-based; conditions: 10 μM, 48 h
Procedure: (§1) Screen was conducted as previously described, performed at Developmental Therapeutics Program NCI/NIH.

SR = experiment: NCI-60 DTP Human Tumor Cell Line Screen, SR; type: cell-based; conditions: 10 μM, 48 h
Procedure: as §1

firefly luciferase [1] = experiment: Luciferase assay in stably transduced luciferase HEK-293T cells; type: cell-based; conditions: 100 μM Cbz-B3A, 4 h, anti-HA immunoblot
HEK-293T cells = experiment: CellTiter-Glo proliferation, HEK-293T; type: cell-based; conditions: Homo sapiens, 48 h
Procedure: To determine cellular growth, CellTiter-Glo luminescent cell viability assay (Promega) was used per the manufacturer's instruction. To determine cytotoxicity, LDH release was measured with the LDH Cytotoxicity Assay Kit (Pierce) according to the manufacture's protocol. For 4 h assays, 96 well plates were seeded at 75,000 cells/mL for BaF3/p210 cells or K562 cells. For HEK-293T cells, 10,000 cells/well were plated 24 h before treatment. Cells were treated for 4 h at 37° C. and […] was removed from every well and used in the LDH Cytotoxicity assay per the manufacturer's protocol. For 48 h assays, 7,500 cells/mL of BaF3/p210 or K562 cells were incubated with compound at 37° C. for 48 h (200 μL/well). For HEK-293T cells, 1,000 cells/well were plated 24 h prior to compound treatment. After treatment, 50 μL was removed from each well for the LDH assay for all cell lines and 100 μL of mixed cells were removed and used with the CellTiter-Glo kit for K562 and BaF3/p210 cells. For HEK-293T cells, wells were treated directed with the CellTiter-Glo kit. Cytotoxicity or viability was measured by luminosity and absorbance on a microplate reader.

firefly luciferase [2] = experiment: Luciferase assay in stably transduced luciferase HEK-293T cells; type: cell-based
Procedure: Firefly luciferase and firefly luciferase-eDHFR were cloned into pBABE-puro vector which was a gift from Hartmut Land & Jay Morgenstern & Bob Weinberg (Addgene plasmid #1764). pBABE-puro-luciferase was co-transfected with VSV-G into GP2-293 cells (Retro-X Universal Packaging System, Clonetech, Mountain View, Calif.) with TransIT-2020 (MirusBio) according to TransIT-2020's manufacture's protocol. After 48 h, viral supernatant was harvested, spun down, filtered with a […] syringe filter, and added to HEK-293T supplemented with 8 μg/mL polybrene. After 4 h of infection, the media was replaced with fresh media. 48 h later, media was replaced with media containing 3 μg/mL puromycin. Media was replaced with fresh media containing puromycin every 3-4 days. After 2 weeks of puromycin selection, the cells were grown out from single cell colonies and screened for luciferase expression.
Stably transduced luciferase HEK-293T cells were plated in 96-well plates 24 h prior to treatment with 100 μM of Cbz-B3A, amine-B3A, acetyl-B3A, and Cbz-acetyl. After 4 h, cells were harvested and measured with Luciferase Assay System with Reporter Lysis Buffer from Promega according to the manufacturer's protocol. Before the addition of luciferin, protein concentration was measured by removing 2 μl of lysate from each well and adding it to diluted Bio-Rad Protein Assay Dye Reagent Concentrate, and the absorbance was measured at OD595. The protein concentration was used to normalize luciferase signal. For translation assays, cells were pretreated for 15 min with 100 μg/mL cycloheximide or 6 μM bortezomib. For the recombinant luciferase assay, Quantilum Recombinant Luciferase (Promega) was diluted 1:250,000 in reporter lysis buffer with 1 mg/mL BSA then mixed 1:1 with 200 μM compound in the same buffer for a final dilution of 1:500,000 and 100 μM compound in 20 μL. This was incubated for 10 min at room temperature then measured with Luciferase Assay System with Reporter Lysis Buffer from Promega according to the manufacturer's protocol.

[3] = tested on: protein translation in HEK-293T cells; experiment: 35S-methionine/cysteine incorporation translation assay; type: cell-based; conditions: Homo sapiens, HEK-293T, 4 h treatment then 1 h labeling
Procedure: 80,000 cells/well of HEK-293T cells were plated into 24 well plates 24 h before the assay. Cells were treated with indicated concentration of compound for 4 h. After 4 h, the media was removed and replaced with DMEM without methionine and cysteine (Lifetechnologies) supplemented with 0.2 mCi/mL EXPRESS [^35S] protein labeling mix (PerkinElmer), 10% dialyzed FBS (Pierce), 1× glutaMax (Gibco), 100 U/mL penicillin 100 μg/mL streptomycin (Gibco), 1 mM sodium pyruvate (Lifetechnologies), and the indicated concentration of compound. After 1 h, this media was removed, cells were washed with ice cold PBS, and lysed with low deoxycholate RIPA buffer (10 mM Tris-Cl, 1% NP-40, 0.5% Na Deoxycholate, 0.1% SDS, 140 mM NaCl, 1 mM EDTA, 500 μM EGTA, 1× Roche Complete protease inhibitors, 1:100 Benzonase, and at pH 8.0). Lysate was centrifuged at maximum speed for 20 m at 4° C. The concentration was measured by Bradford assay. 10 μg of lysate was added to […] ice cold 1 mg/mL BSA with 0.02% Na Azide. 1 mL of ice cold 10% TCA was added, the solutions were mixed and incubated on ice for 0.5 h. These mixtures were vacuum filtered onto GF/C Whatman glass microfiber filters. The filters were washed with 2×5 mL of 10% TCA, then 2×3 mL ethanol. The filters were then dried for a 0.5 h. The filters were placed into scintillation vials with 5 mL of scintillation fluid and read on a scintillation counter.

T1 sequence (Q9NRR5 whole entry): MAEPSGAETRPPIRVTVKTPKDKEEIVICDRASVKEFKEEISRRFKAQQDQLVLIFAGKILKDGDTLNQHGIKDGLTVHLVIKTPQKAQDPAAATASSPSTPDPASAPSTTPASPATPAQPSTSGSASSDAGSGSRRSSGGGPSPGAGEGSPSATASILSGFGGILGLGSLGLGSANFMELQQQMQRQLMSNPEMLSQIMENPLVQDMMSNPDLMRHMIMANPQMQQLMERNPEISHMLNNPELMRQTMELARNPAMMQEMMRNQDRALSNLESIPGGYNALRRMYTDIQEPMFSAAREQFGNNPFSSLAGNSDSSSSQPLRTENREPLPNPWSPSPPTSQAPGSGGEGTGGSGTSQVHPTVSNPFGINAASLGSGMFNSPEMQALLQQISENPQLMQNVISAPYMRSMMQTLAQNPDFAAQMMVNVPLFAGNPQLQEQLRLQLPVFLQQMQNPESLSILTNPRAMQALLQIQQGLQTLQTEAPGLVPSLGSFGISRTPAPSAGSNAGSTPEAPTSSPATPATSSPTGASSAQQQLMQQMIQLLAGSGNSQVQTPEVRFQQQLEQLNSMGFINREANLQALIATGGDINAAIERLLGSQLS

In the case of `CC(C)(C)OC(=O)/N=C(\NCCC[C@H](NC(=O)OC(C)(C)C)C(=O)NCCCCCCNC(=O)OCc1ccccc1)NC(=O)OC(C)(C)C` [Cbz-B3A], the “melting temperature shift of ubiquilin 4” value (ubiquilin 4) was “clear shift to a lower melting temperature”, the “amount of TSC2” value (TSC2) was “appeared to increase the amount of TSC2” and the “average decrease in proliferation, all cell lines” value (NCI-60 cell lines) was 29%. For the same compound, the “decrease in proliferation, SR” value (SR) was 83%, the “decrease in amount of luciferase protein” value (firefly luciferase [1]) was “approximately 40%” and the inhibition at 10 µM (HEK-293T cells) was 64%. The “firefly luciferase signal, co-treatment with bortezomib compared to bortezomib alone” value (firefly luciferase [2]; 6 μM bortezomib pretreatment 15 min, then 100 μM Cbz-B3A 4 h) was “decreased”, the “luciferase activity, co-treatment with cycloheximide” value (firefly luciferase [2]; 100 μg/mL cycloheximide pretreatment 15 min, then 100 μM Cbz-B3A 4 h) was “no further decrease in luciferase activity” and the “wild type luciferase signal” value (firefly luciferase [2]; HEK-293T cells expressing HA-luciferase, 100 μM, 4 h) was “decreased the wild type luciferase signal”. For the same compound, the pEC50 ([3]; read-out: EC50 of inhibition of 35S-methionine/cysteine incorporation) was roughly 5.52 and the inhibition at 10 µM ([3]; saturating concentration (Cbz-B3A 10 μM), read-out: maximal inhibition of translation (35S-methionine/cysteine incorporation)) was 68%.

Source: patent US20180327364A1, “MTOR INHIBITORS AND METHODS OF USE THEREOF” (Brandeis University, priority 2015, published 2018)
